From patent US4681754A, “Counteracting cyclosporin organ toxicity” (Sandoz Ltd., priority 1984, dated 1987)

Key:
Assay type in all cases: in vivo
OFI mice = experiment: Test 2: immuno-suppressive activity, anti-body producing cell development in the mouse (PFC test); conditions: Cyclosporine alone p.o. on 3 successive days
Experimental: The test is carried out employing .female. OFI mice sensibilized by i.v. administration of ca. 1×10^8 sheep erythrocytes (SRBC). The test animals are divided into groups of 5.
The spleens are removed on day 4 and a cell suspension prepared and incubated with fresh SRBC antigen on soft agar. After addition of compliment, which, together with anti-body secreted from the sensibilized cells, dissolves SRBC in the vicinity of secreting cells, plaque development is counted and compared with results obtained employing untreated control mice.

rats (F344×WF)FI = experiment: Test 1: immuno-suppressive activity, local graft-versus-host (GVH) reaction in the rat; conditions: Cyclosporine alone p.o. on 4 successive days
Experimental: The test is carried out employing rats (F344×WF)FI sensibilized by injection into the hind-foot of spleen cells taken from .female. Wistar-Furth (WF) rats. The test animals are divided into groups of 8. […] GVH reaction is determined by measurement of increase in lymphe node weight compared with untreated controls.

OFA rats = experiment: Test 3: anti-inflammatory activity, adjuvant arthritis in the rat; conditions: Cyclosporine alone p.o./day for 14 days
Experimental: For this test adjuvant arthritis is induced in accordance with the method described by Pearson and Wood, "Arthr. Rheum." 2, 440 (1959). OFA .female. rats are employed as test animals. […] Administration is effected in all cases on successive days for 14 days starting on day 1 after antigen administration and inflammatory reaction is determined on day 19 after antigen administration.

## Cyclosporine
OFI mice
  ED50 for Cyclosporine, PFC test (plaque development): 40 mg/kg
Rats (F344×WF)FI
  ED50 for Cyclosporine, GVH reaction (increase in lymph node weight): 27 mg/kg
OFA rats
  ED50 for Cyclosporine, adjuvant arthritis (inflammatory reaction day 19): 4.2 mg/kg
